Assay results published in article PMC5736782, “The Differential Absorption of a Series of P-Glycoprotein Substrates in Isolated Perfused Lungs from Mdr1a/1b Genetic Knockout Mice can be Attributed to Distinct Physico-Chemical Properties: an Insight into Predicting Transporter-Mediated, Pulmonary Specific Disposition” (Pharmaceutical Research, 2017).
Read-outs that look alike come from different tables or passages of the source.

Key:
[1] = tested on: P-glycoprotein (Mdr1a/Mdr1b) in isolated perfused mouse lung; experiment: Isolated perfused mouse lung (IPML) airway-to-perfusate absorption, Mdr1a/1b (+/+) vs (−/−)
Protocol: The atria and the lower half of the heart were cut to allow the free flow of perfusate. The lungs were removed and suspended vertically in a custom water-jacketed glass thorax (Radleys, Essex, UK) maintained at 37°C.
Following dosing of compound into the IPML airways serial samples (250 μL) were collected for bioanalysis from the 10 mL recirculating perfusate reservoir. Each sample collected from the reservoir was replaced with an equal volume of fresh warmed, oxygenated perfusate. Upon termination of the experiment the dose solutions, apparatus washings and perfusate samples were collected for mass balance calculations enabling determination of the actual total dose delivered to the lungs.
Radioactive compounds were directly analysed by liquid scintillation counting. Volumes of 50 μL perfusate samples were mixed with 3 mL of Scintisafe 3 Liquid Scintillation Fluid (Fisher, UK) and transferred to vials for scintillation counting using a TriCarb 2900TR (Packard Bioscience, USA).
After accounting for the mass of compound removed at each sample point, plots of the cumulative ‘%deposited dose absorbed’ versus ‘time’ were generated and subject to nonlinear regression analysis according to a first-order absorption one-compartment accumulating model (Eq. 1) to generate estimates for the extent (F) and rate (Ka) of absorption from the IPML airways to the recirculating perfusate.
The data was also subject to standard non-compartmental analysis, specifically Area Under Curve (AUC0–30 min) of ‘%deposited dose absorbed’ versus ‘time’ (units: %Dose.min) and reflecting for the exclusively accumulating perfusate ‘compartment’ the exposure arising from the IPML absorption process alone.

mouse Bcrp = target: T1, mouse Bcrp (Mus musculus, UniProt Q7TMS5); experiment: Gentest ABC transporter membrane ATPase assay; format: biochemical
T1 construct: purchased Corning (Gentest), Germany
T1 sequence (Q7TMS5 1-657): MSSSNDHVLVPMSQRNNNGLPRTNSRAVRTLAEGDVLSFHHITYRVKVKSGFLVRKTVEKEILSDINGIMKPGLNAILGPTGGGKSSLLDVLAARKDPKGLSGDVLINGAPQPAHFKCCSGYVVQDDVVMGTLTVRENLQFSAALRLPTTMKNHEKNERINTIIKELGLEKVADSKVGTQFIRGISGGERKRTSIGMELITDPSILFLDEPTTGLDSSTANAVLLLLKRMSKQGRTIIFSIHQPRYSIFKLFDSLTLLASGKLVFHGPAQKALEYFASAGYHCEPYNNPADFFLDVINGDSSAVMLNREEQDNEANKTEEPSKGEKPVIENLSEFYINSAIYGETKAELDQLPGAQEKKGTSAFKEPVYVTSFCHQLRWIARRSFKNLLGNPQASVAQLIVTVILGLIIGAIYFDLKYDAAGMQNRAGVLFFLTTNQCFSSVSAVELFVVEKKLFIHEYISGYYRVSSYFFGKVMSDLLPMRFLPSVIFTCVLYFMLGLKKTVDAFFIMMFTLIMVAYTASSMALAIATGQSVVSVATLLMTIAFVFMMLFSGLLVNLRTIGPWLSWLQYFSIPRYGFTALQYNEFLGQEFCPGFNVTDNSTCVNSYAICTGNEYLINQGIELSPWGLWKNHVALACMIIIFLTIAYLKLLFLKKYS
Source text: (§1) The Gentest ATPase assay (Corning, Germany) was used to investigate the binding kinetics of the panel of P-gp substrates against membranes constituted to display human MDR1, mouse Mdr1a, mouse Mdr1b and mouse Bcrp. The assays measure the accumulation of inorganic phosphate (absorbance at 800 nm) produced in the breakdown of ATP to ADP. […] The assays were used in accordance with the manufacturer’s protocol to calculate (GraphPad Prism) the Michaelis-Menten parameters Km and VMAX. For the assay test compounds were serially diluted to produce an assay concentration range of 0–300 μM with the kinetics of ATP turnover examined over 30 min at 37°C.

[2] = Immobilised artificial membrane (IAM) chromatography; format: physicochemical; settings: extrapolated to 100% water; mean of four experiments
Protocol: IAM chromatography provided an experimental measure of substrate membrane affinity and phospholipid interaction. The IAM column (Regis Technologies Inc., Hichrom, Reading, UK; IAM.PC.DD2 10 cm x 4.6 mm ID column) was run under isocratic eluting conditions with the retention of all compounds determined under three mobile phase conditions: 10%, 20% and 30% acetonitrile in water, and from which the theoretical retention time in 100% water was calculated by linear regression. LogK^IAM values were calculated according to Eq. 2:2 LogK^IAM=LogTr−T0/T0
where Tr and T0 are respectively the retention times of the substrate in 100% water and of the unretained compound, i.e. eluting within the solvent front of 75 s in all experiments.

[3] = Multi-lamellar liposome vesicle (MLV) partitioning; format: physicochemical; settings: (C0−CS)/C0, 1 μg/mL, 4 h, 37°C, PBS pH 7.4
Protocol: MLVs were formed as previously described ([20]). Briefly, solutions of 8 mg phosphatidylcholine and 2 mg phosphatidylglycerol in 10 mL chloroform were completely dried to a lipid film (rotation under vacuum).
These preparations were then incubated at 37°C for 4 h under shaking conditions to allow equilibration of compound between the lipid and aqueous fractions. The MLVs were then pelleted and 100 μL of supernatant removed for analysis by radiometric or LC-MS/MS methods as described above. Partitioning into the MLVs was determined according to Eq. 3:3 MLVpartitioning=C0−CS/C0
where C0 is the initial compound concentration (1 μg/mL) and CS is the compound concentration present in the aqueous supernatant at the end of 4 h incubation.

P-gp (Mdr1a/1b) = experiment: Pilot in-vivo intra-nasal instillation, lung clearance
Protocol: Separate mice were sacrificed (n=3) at each time-point post-instillation (5 min, 1 hr, 3 hr, 5 hr, 7 hr and 12 hr). Lung tissue was homogenised and subjected to solute extraction approaches priod to LC-MS/MS quantitation.

P-gp [4] = settings: IPRL; cited from earlier work
P-gp [5] = tested on: P-gp; parameters: method as in PMID 23670704; settings: IPRL and IPML models; cited from earlier work
human MDR1 = human MDR1 (Homo sapiens, UniProt P08183); experiment: Gentest ABC transporter membrane ATPase assay; settings: ATPase, 0–300 μM, 30 min, 37°C
Source text: as §1

mouse Mdr1a = mouse Mdr1a (Mus musculus, UniProt P21447); experiment: Gentest ABC transporter membrane ATPase assay; settings: 0–300 μM, 30 min, 37°C
Source text: as §1

mouse Mdr1b = mouse Mdr1b (Mus musculus, UniProt P06795); experiment: Gentest ABC transporter membrane ATPase assay; settings: 0–300 μM, 30 min, 37°C
Source text: as §1

[6] = tested on: P-gp (Mdr1a/1b) in mouse intestinal segments; experiment: Ussing chamber intestinal permeability, ileal segments Mdr1a/1b (+/+) vs (−/−); settings: for Mdr1a/1b (−/−) Permeability coefficient: P-gp knockout intestinal segments; for Mdr1a/1b (−/−) Permeability coefficient / Mdr1a/1b (+/+) Permeability coefficient: mucosal to serosal, 50 μM, 180 min; for Mdr1a/1b (+/+) Permeability coefficient: wild-type intestinal segments
Protocol: (§2) The bathing fluid for both mucosal and serosal surfaces (3 mL volume in each chamber) comprised oxygenated Krebs-Henseleit buffer maintained at 37°C (heating block) under stirred conditions (gas flow manifold). […] Any intestinal segments presenting an initial TEER of lower than 80 Ω.cm^2 were discarded prior to the experiment, likewise any segments whose TEER decreased by more than 10% over the course of the experiment were excluded.
(§3) Thereafter permeability coefficients were determined according to Eq. 4:4 ρ=dM/dt/A^∗C0

[7] = tested on: P-gp (Mdr1a/1b) in mouse intestinal segments
Protocol: as §2, §3

[8] = parameters: method as in PMID 12761811; settings: cited from earlier work
Caco-2 cell model = tested on: Caco-2 cell model; parameters: method as in PMID 12761811; settings: cited from earlier work
[9] = parameters: method as in PMID 4654354; settings: cited from earlier work
[10] = ATPase, 0 indicates no enzyme turnover
[11] = knockout IPML, within 30 minutes
[12] = wild-type IPML, within 30 minutes

Sequence of mouse Mdr1b (P06795 whole entry): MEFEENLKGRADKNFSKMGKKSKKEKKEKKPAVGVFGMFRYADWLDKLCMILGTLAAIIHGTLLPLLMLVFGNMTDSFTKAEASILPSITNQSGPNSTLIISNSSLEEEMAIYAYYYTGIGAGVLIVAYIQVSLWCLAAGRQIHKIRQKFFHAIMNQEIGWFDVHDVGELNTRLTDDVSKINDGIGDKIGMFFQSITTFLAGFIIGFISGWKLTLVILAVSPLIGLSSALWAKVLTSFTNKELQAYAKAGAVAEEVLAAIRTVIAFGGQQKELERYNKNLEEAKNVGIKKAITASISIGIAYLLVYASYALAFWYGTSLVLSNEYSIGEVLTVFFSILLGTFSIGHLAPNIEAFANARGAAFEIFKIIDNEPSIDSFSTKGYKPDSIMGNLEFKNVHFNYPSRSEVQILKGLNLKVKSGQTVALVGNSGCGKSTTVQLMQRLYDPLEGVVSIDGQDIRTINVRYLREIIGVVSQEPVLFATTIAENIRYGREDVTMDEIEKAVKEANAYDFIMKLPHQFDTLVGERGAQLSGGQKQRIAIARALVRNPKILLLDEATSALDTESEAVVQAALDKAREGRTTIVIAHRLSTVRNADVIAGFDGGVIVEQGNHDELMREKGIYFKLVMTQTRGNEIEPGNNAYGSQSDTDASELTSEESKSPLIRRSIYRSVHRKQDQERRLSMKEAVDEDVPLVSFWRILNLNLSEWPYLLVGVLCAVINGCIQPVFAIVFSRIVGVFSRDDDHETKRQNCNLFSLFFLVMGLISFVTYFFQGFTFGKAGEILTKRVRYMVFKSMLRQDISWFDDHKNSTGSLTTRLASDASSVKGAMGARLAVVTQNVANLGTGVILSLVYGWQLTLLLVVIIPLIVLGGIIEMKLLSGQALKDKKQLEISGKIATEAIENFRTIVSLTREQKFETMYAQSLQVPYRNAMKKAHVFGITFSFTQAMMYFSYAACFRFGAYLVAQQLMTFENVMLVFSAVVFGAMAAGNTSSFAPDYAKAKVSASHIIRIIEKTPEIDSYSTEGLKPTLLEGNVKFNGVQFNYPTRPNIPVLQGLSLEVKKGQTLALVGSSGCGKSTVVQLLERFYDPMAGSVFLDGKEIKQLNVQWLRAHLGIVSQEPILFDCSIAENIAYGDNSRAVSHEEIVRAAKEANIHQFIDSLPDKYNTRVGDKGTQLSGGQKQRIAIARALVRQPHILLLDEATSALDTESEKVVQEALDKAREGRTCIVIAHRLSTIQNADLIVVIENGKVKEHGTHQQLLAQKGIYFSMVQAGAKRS
Sequence of mouse Mdr1a (P21447 whole entry): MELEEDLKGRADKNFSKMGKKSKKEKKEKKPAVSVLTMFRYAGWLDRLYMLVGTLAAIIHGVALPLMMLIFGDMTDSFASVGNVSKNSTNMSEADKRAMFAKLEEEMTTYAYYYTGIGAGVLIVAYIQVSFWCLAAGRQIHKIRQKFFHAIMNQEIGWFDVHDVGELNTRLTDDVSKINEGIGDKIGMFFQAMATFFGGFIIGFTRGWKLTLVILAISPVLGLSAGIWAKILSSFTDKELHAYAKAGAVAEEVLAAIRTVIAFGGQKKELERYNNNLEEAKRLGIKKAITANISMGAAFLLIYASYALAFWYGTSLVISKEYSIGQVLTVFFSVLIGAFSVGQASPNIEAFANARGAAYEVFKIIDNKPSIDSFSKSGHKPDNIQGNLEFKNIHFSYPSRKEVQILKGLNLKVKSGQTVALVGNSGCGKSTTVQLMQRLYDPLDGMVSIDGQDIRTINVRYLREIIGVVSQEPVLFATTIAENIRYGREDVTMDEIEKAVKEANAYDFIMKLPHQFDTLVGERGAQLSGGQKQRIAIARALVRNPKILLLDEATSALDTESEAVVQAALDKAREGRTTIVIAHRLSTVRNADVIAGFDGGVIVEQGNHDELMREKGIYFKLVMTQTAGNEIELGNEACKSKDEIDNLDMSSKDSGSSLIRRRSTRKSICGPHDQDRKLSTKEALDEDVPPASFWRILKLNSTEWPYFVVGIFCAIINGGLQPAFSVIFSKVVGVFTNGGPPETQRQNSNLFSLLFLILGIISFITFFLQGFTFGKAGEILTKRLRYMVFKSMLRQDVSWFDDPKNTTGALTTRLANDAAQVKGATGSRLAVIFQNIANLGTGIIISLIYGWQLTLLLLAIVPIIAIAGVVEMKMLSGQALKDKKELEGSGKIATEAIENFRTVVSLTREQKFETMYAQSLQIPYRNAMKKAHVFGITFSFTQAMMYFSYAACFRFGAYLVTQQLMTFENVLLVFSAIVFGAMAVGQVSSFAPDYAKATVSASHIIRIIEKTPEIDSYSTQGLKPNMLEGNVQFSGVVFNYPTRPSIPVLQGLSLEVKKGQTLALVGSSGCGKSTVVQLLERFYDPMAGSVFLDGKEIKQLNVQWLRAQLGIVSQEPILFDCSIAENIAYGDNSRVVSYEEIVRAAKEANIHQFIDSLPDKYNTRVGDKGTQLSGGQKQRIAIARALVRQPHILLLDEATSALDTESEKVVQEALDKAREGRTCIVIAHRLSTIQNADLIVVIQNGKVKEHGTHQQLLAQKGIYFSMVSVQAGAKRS
Sequence of human MDR1 (P08183 whole entry): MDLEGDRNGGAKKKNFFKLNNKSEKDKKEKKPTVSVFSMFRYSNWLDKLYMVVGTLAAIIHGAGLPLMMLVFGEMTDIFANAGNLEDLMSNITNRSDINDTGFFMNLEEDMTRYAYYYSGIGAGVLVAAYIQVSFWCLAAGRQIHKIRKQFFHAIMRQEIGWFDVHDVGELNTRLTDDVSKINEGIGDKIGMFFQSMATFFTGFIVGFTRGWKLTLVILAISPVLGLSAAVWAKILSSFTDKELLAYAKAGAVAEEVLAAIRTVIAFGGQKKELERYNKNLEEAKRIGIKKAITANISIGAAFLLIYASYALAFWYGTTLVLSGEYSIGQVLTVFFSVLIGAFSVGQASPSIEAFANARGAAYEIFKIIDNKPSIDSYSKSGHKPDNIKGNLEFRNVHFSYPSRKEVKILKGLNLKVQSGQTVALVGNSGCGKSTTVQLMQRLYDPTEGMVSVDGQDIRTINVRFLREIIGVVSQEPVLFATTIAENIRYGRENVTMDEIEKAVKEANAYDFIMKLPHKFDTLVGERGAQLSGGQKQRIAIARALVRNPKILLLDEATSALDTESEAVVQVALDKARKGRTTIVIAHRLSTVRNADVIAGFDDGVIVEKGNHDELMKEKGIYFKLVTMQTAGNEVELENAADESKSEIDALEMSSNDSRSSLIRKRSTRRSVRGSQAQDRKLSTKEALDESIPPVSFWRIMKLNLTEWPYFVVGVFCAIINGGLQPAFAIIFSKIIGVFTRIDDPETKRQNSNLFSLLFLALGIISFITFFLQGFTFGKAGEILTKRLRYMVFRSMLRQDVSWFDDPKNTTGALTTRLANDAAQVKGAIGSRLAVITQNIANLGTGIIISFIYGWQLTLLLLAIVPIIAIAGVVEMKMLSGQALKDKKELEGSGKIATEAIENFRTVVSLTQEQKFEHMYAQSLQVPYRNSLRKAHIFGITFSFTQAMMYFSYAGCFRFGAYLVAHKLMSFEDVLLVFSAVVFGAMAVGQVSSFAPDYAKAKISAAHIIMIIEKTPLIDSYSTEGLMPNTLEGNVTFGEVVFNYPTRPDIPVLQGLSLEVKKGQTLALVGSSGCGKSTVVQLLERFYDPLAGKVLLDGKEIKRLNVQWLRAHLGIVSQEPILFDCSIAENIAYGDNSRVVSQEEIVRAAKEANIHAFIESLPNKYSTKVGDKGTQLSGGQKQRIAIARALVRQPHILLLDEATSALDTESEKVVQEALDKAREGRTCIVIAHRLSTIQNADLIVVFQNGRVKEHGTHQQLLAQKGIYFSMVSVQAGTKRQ

C[C@H]1O[C@@H](O[C@H]2[C@@H](O)C[C@H](O[C@H]3[C@@H](O)C[C@H](O[C@H]4CC[C@@]5(C)[C@H](CC[C@@H]6[C@@H]5C[C@@H](O)[C@]5(C)[C@@H](C7=CC(=O)OC7)CC[C@]65O)C4)O[C@@H]3C)O[C@@H]2C)C[C@H](O)[C@@H]1O [Digoxin, digoxin]
Mdr1a/1b (+/+) ‘F’ estimate by model fit [95% CI) ([1]; male, mouse, 50 μM): 44.0 [37.2 to 50.8] | Mdr1a/1b (-/-) ‘F’ estimate by model fit [95% CI) ([1]; male, mouse, 50 μM): 49.8 [38.4 to 61.3] | Mdr1a/1b (+/+) % Deposited Dose absorbed ([1]; male, mouse, 30 min, 50 μM): 40.1% | Mdr1a/1b (-/-) % Deposited Dose absorbed ([1]; male, mouse, 30 min, 50 μM): 41.8% | Vmax (mouse Bcrp; [10]): 0 µM/min | LogK^IAM [2]: 0.92 | MLV Partitioning [3]: 0.30 | lung levels 1 hr post-instillation, wild-type mice (P-gp (Mdr1a/1b); intra-nasal 976 ng, Mdr1a/1b +/+): 1.57 % of the nominal instilled dos | lung levels 1 hr post-instillation, knockout mice (P-gp (Mdr1a/1b); intra-nasal 976 ng, Mdr1a/1b -/-): 0.94 % of the nominal instilled dos | lung levels after 1 h post-instillation (P-gp (Mdr1a/1b); intra-nasal, WT and KO mice): undetectable | effect of co-administered GF120918 upon pulmonary absorption (P-gp [4]): no effect | effect of P-gp inhibition (GF120918) upon pulmonary absorption (P-gp [5]): remained unaffected | Vmax (human MDR1): 19.7 µM/min | Vmax (mouse Mdr1a): 26.7 µM/min | Vmax (mouse Mdr1b): 44.1 µM/min | Mdr1a/1b (−/−) Permeability coefficient [6]: 20.94 ± 2.94 cm/s (x10^−6) | Mdr1a/1b (+/+) Permeability coefficient [6]: 6.04 ± 1.46 cm/s (x10^−6)

CC[C@@]1([C@@H]2O[C@@H]([C@H]3O[C@@](O)(CO)[C@H](C)C[C@@H]3C)C[C@@H]2C)CC[C@H]([C@]2(C)CC[C@]3(C[C@H](O)[C@@H](C)[C@@H]([C@@H](C)[C@@H](OC)[C@H](C)C(=O)O)O3)O2)O1 [Monensin, monensin]
Group (impact of Mdr1a/1b knockout on IPML absorption) [1]: GROUP A | Mdr1a/1b (-/-) AUC(0-30) ([1]; knockout IPML, % deposited dose absorbed vs time in perfusate): 722 %.min | Mdr1a/1b (-/-) % Deposited Dose absorbed [1, 11]: 38.9% | Mdr1a/1b (+/+) ‘F’ estimate by model fit [95% CI) ([1]; male, mouse): 35.8 [28.0 to 43.6] | Mdr1a/1b (-/-) ‘F’ estimate by model fit [95% CI) ([1]; male, mouse): 33.7 [27.7 to 39.6] | Mdr1a/1b (+/+) % Deposited Dose absorbed [1, 12]: 36.5% | Vmax (mouse Bcrp; [10]): 0 µM/min | LogK^IAM [2]: 1.32 | MLV Partitioning [3]: 0.68 | Mdr1a/1b (−/−) Permeability coefficient [7]: 19.06 ± 2.41 cm/s (x10^−6) | Vmax (mouse Mdr1a): 27.6 µM/min | Vmax (mouse Mdr1b): 42.3 µM/min

COC(=O)c1ccccc1-c1c2ccc(=N)cc-2oc2cc(N)ccc12.Cl [Rh-123, rhodamine-123]
Mdr1a/1b (+/+) AUC(0-30) [1]: 376 %.min | Mdr1a/1b (+/+) ‘F’ estimate by model fit [95% CI) [1]: 23.5 [19.9 to 27.1] | Mdr1a/1b (-/-) AUC(0-30) [1]: 712 %.min | Mdr1a/1b (-/-) ‘F’ estimate by model fit [95% CI) [1]: 30.6 [27.6 to 33.5] | Group (impact of Mdr1a/1b knockout on IPML absorption) ([1]; categorisation from IPML outcomes): GROUP B | Mdr1a/1b (-/-) % Deposited Dose absorbed [1, 11]: 33.2% | Ratio AUCs (-/-) : (+/+) ([1]; mouse): 1.89 | Mdr1a/1b (+/+) % Deposited Dose absorbed [1, 12]: 20.7% | Km (mouse Bcrp; [10]): 110 µM | Vmax (mouse Bcrp; [10]): 18.5 µM/min | interaction with Bcrp (ATP turnover) (mouse Bcrp; mouse Bcrp membrane model): showed evidence of interactions with Bcrp | LogK^IAM [2]: 1.30 | MLV Partitioning [3]: 0.82 | t^1/2 for the initial decline of lung clearance, KO (P-gp (Mdr1a/1b); mouse, in vivo): 107 min | t^1/2 for the initial decline of lung clearance, WT (P-gp (Mdr1a/1b); mouse, in vivo): 136 min | t^1/2 terminal decline phase of lung clearance (P-gp (Mdr1a/1b); mouse, in vivo): 500 min | effect of co-administered GF120918 upon pulmonary absorption (P-gp [4]): significantly increased | effect of P-gp inhibition (GF120918) upon pulmonary absorption (P-gp [5]): increased | Km (human MDR1): 2.2 µM | Vmax (human MDR1): 36.3 µM/min | Km (mouse Mdr1a): 6 µM | Vmax (mouse Mdr1a): 35.2 µM/min | Km (mouse Mdr1b): 2.2 µM | Vmax (mouse Mdr1b): 29.7 µM/min | Mdr1a/1b (−/−) Permeability coefficient [6]: 22.55 ± 2.24 cm/s (x10^−6) | Ratio Permeability (−/−): (+/+) ([6]; intestinal Papp KO:WT): 2.49 | Mdr1a/1b (+/+) Permeability coefficient [6]: 9.06 ± 1.81 cm/s (x10^−6)

O=C(O)c1cc(=O)c2c(OCC(O)COc3cccc4oc(C(=O)O)cc(=O)c34)cccc2o1 [cromolyn]
permeability across the lung [8]: high permeability | Papp (Caco-2 cell model): < 1 ×10⁻⁶ cm/s

CN(C)C(=O)C(CCN1CCC(O)(c2ccc(Cl)cc2)CC1)(c1ccccc1)c1ccccc1 [loperamide]
effect of P-gp inhibition (GF120918) upon pulmonary absorption (P-gp [5]): affected

OC[C@@H](O)[C@@H](O)[C@H](O)[C@H](O)CO [mannitol]
Mdr1a/1b (+/+) % Deposited Dose absorbed ([1]; male, FVB/B6 Mdr1a/1b(+/+) wild-type, mouse, 30 min, 50 μM): 44.3 ± 9.4% | Mdr1a/1b (-/-) % Deposited Dose absorbed ([1]; male, FVB/B6 Mdr1a/1b(−/−) knockout, mouse, 30 min, 50 μM): 43.2 ± 10.2% | absorbed from the lung [9]: 50 % of administered dose | absorbed from the small intestine [9]: < 2%

CC(C)(C)NCC(O)c1cc(O)cc(O)c1 (stereo not drawn) [terbutaline]
permeability across the lung [8]: high permeability | Papp (Caco-2 cell model): < 1 ×10⁻⁶ cm/s

cyanocobalamin
permeability across the lung [8]: high permeability | Papp (Caco-2 cell model): < 1 ×10⁻⁶ cm/s

inulin
absorbed from the lung [9]: 17 % of administered dose | absorbed from the small intestine [9]: < 2%
